Data published in the METLIN SMRT retention time set (Domingo-Almenara et al. 2019).

Test: gradient 5% acetonitrile 3 min, to 50% in 2 min, to 85% in 15 min, held 3 min, 100 µL/min
Conditions: column: Zorbax Extend-C18 2.1 x 50 mm; eluents: water / acetonitrile, 0.1% formic acid
In short: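 Using water and acetonitrile that each contained 0.1% formic acid, mixtures of ~100 pure standards were separated at 100 μL/min on a Zorbax Extend-C18 column (2.1 × 50 mm, 1.8 μm). The HPLC fed a quadrupole time-of-flight mass spectrometer working in positive and negative ionization mode, with dead and dwell volumes of 40 μL and 900 μL. Data were acquired over 3 months. Retention time was read from computationally picked adduct peaks after manual inspection of each.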

SMILES | RP-LC retention time [s]
CCCCCCNC(=O)C1CCCN(c2ncc(-c3ccc(F)cc3)cn2)C1 (stereo not drawn) | 1160
CCCN1C(=O)C(CC(=O)NCCN(C)C)Sc2ncccc21 (stereo not drawn) | 588
CC1CCCN(c2ccn3c(=O)n(CC(=O)Nc4cccc(Cl)c4)nc3n2)C1 (stereo not drawn) | 835
Cc1cccc(-c2noc(-c3ccc(N4CCN(c5ccccc5F)CC4)nc3)n2)c1 | 613
CCCn1cc(CNC(=O)CN2CCN(Cc3ccc(F)cc3)C2=O)c(C)n1 | 674
CC1=C(C(=O)OCCc2ccccc2)C(c2cccs2)NC(=O)N1 (stereo not drawn) | 821
CC1CN(C(=O)Cn2cc(SCC(=O)NCC3CCCO3)c3ccccc32)CC(C)O1 (stereo not drawn) | 723
CCOc1ccccc1-c1nc(Cc2noc(-c3cccnc3)n2)c(C)o1 | 894
CCN1CCN(c2cc(C)c3cc(NC(=S)N4CCC(N5CCCCC5)CC4)ccc3n2)CC1 | 488
CCOc1cccc(-c2noc(Cn3c(=O)n(Cc4ccc(F)cc4)c(=O)c4sccc43)n2)c1 | 1210
Cc1nc(-c2cc3ccccc3nc2N2CCN(c3ccc(F)cc3)CC2)no1 | 1110
Cc1c(Cl)cccc1-n1ccnc(NC(=O)Nc2ccc3c(c2)OCO3)c1=O | 995
CC(C)(C)c1ccc(S(=O)(=O)N2CCC(C(=O)NCc3csc(-c4ccccc4)n3)CC2)cc1 | 1130
COc1ccc(CC(=O)N2CCCC2c2cc(C(C)C)no2)cc1 (stereo not drawn) | 868
COc1ccc(-c2nc3cnccn3c2Nc2ccc(C)cc2Br)cc1 | 1040
CCCNc1cc(N2CCCC(CCC(=O)N(CC)CC)C2)ncn1 (stereo not drawn) | 658
COc1cc(NC(=O)c2cc(C)n3nc(C)cc3n2)cc(OC)c1OC | 847
COc1cccc(CNC(=O)Cn2c(N3CCCC3)nc(C)cc2=O)c1 | 770
Cc1oc(-c2[nH]ncc2C(=O)N2CCCC2)cc1S(=O)(=O)N(C)C | 620
O=C(c1ccccc1)C(c1ccccc1)C1(O)C(=O)Nc2c(Cl)cc(Cl)cc21 (stereo not drawn) | 949

SMILES | RP-LC retention time [s]
COc1cc(OC)cc(C(=O)Nc2cccc(C(C)=O)c2)c1 | 753
O=C(NCCN1CCOCC1)c1ccc(-c2c(-c3ccc(F)cc3)ncn2C2CCCC2)o1 | 592
COCCNC(=O)C(=O)NCC1CCN(C(=O)c2ccccc2F)CC1 | 609
Cc1cccc(NS(=O)(=O)c2ccc3nncn3c2)c1 | 673
CC(C)C(=O)Nc1ccc(CCc2nc3ccc(C(=O)NC4CCCCC4)cc3[nH]2)cc1 | 672
CCOc1ccc(-c2ccc(=O)n(Cc3nc(-c4ccccc4C)no3)n2)cc1 | 1040
CCc1noc(-c2ccc(-n3ncc(C(=O)N4CCOCC4)c3C)nc2)n1 | 752
CC(C)NC(=O)Cn1cc(-c2ccccc2)c2ncnc(N3CCOCC3)c21 | 659
Cn1c(=O)sc2cc(S(=O)(=O)N3CCC(C(=O)Nc4cccc(C#N)c4)CC3)ccc21 | 860
Cc1nnc2n1CCN(C(=O)c1cc(-c3ccccc3)n[nH]1)C2 | 608
O=C(c1ccc(F)cc1)N1CCC2(CC1)OCC(C(=O)N1CCCC1)N2C(=O)c1cccc(F)c1 (stereo not drawn) | 715
CN1CCCc2cc(C(CNC(=O)C(=O)NCc3ccc(F)cc3)N3CCOCC3)ccc21 (stereo not drawn) | 569
CCOc1ccc(S(=O)(=O)N2CCC(C(=O)NCc3ccncc3)CC2)cc1C | 662
Cc1noc(C)c1S(=O)(=O)NCC1CCN(C(=O)c2cccn(C)c2=O)CC1 | 599
CCCN(C)C[C@@H]1CC(F)(F)CN1C1CCN(S(=O)(=O)c2ccc(C)cc2C)CC1 | 788
CCN1CCN(C(=O)C2CCCN(c3nc4ccccc4n(Cc4ccccc4)c3=O)C2)CC1 (stereo not drawn) | 706
Cc1cc(C)nc(NC(=O)NCCCSc2ccccn2)n1 | 671
Cn1c(=O)c2cc(C(=O)NCc3cccnc3)nn2c2ccccc21 | 599
Cc1ccc(CS(=O)Cc2ccc(C(=O)NCCN(C)C)o2)cc1 (stereo not drawn) | 587
Cc1nc(Cn2cccc2C(=O)Nc2ccc(Cl)cc2)no1 | 899

SMILES | RP-LC retention time [s]
CC(C(=O)N1Cc2c(C(=O)NC3CC3)nn(C)c2C1)c1ccccc1 (stereo not drawn) | 708
Cc1ccccc1CNC(=O)C1=C2CCCN2c2ccc(F)cc2S1(=O)=O | 918
Cc1oc(-c2ccc(Cl)cc2)nc1CN1CCC(C(=O)NCc2ccccn2)CC1 | 584
O=C(Cc1cn(Cc2ccc(Cl)cc2)c2ccccc12)NCc1ccccn1 | 700
O=S(=O)(c1ccc(-c2noc(-c3cccc(Cl)c3)n2)cc1)N1CCOCC1 | 1170
Cc1nnc2ccc(-c3noc(Cc4ccc(Cl)cc4)n3)cn12 | 868
O=C(NCc1ccccc1Cl)c1coc(NC(=O)c2cnccn2)n1 | 643
CCOC(=O)c1cnc2nc(C)ccc2c1Nc1cc(F)cc(F)c1 | 736
CCOC(=O)c1nc(NCCN2CCCc3ccccc32)c2ccccc2n1 | 729
CCOc1ccc(NC(=O)Cc2c(C)nn(-c3nc(C)cs3)c2C)cc1 | 974
CC1Oc2ccc(-c3csc(NC(=O)c4ccccc4Cl)n3)cc2N(C)C1=O (stereo not drawn) | 968
CC(C)n1c(N2CCCN(C(=O)c3ccc(Br)o3)CC2)cc(=O)n(C(C)C)c1=O | 866
Cc1ccc(-c2cc(N3CCOCC3)c3cc(NC(=O)NC4CCCCC4)ccc3n2)cc1 | 787
Cc1cc(NC(=O)c2ccc(-c3cncnc3)nc2)ccc1Br | 859
Cc1nc(-c2noc(-c3ccncc3)n2)cn1CC(=O)Nc1cccc(Cl)c1 | 760
CSc1nc2ccc(NS(=O)(=O)c3ccc(Br)s3)cc2s1 | 994
Cc1ccsc1C(=O)N1CCN(c2cc(-c3ccccc3)[nH]n2)CC1 | 744
CCCn1cnc2cc(CNC(=O)c3cccc(C(F)(F)F)c3)ccc21 | 690
CCOC(=O)C1CCN(C(=O)c2ccc3ccnc(N4CCN(c5ccc(F)cc5)CC4)c3c2)CC1 | 814

Other lines, results leading:

RP-LC retention time [s] | SMILES
616 | CN(CCCNC(=O)C1CCCN(c2ncnc3c2nc2n3CCCCC2)C1)Cc1ccccc1 (stereo not drawn)
955 | COc1cccc(CN2C(=O)CSc3c(c4ccccc4n3C)C2C(=O)NCCCOC(C)C)c1 (stereo not drawn)
781 | CCn1c(=O)c(C(=O)NCc2ccc(C)cc2)nc2cccnc21
574 | CN1C(=O)[C@H]2CN(Cc3ccc(C#N)cc3)C[C@H]2C1=O
660 | CCc1ccc(NC(=O)N2CCC(C(=O)NCc3csc(C)n3)CC2)cc1
726 | Cc1ccc(-n2nc(C(=O)N3CCN(c4ncccn4)CC3)c3ncn(C)c(=O)c32)cc1
871 | CCCNC(=O)Cn1c(C)cc(=O)n2nc(-c3ccc(Cl)cc3)nc12
585 | Cc1cnc(C2CN(C(=O)C3(c4ccccc4)CC3)C2)n1Cc1cccnc1
564 | C=CCN1CCN(C(=O)c2ccc3c(c2)Sc2ncccc2C(=O)N3CC)CC1
1100 | Cc1ccc(S(=O)(=O)N2CC(=O)N(C3CCCCC3)C(C)(C(=O)NCc3ccccc3)C2)cc1 (stereo not drawn)
1000 | Cc1ccc(C)c(N2CCN(c3ccnc(SCC(=O)Nc4cccc(C)c4C)n3)CC2)c1
950 | Cc1cc(C)cc(Oc2nccn3c(=O)n(CC(=O)Nc4cc(F)ccc4F)nc23)c1
583 | O=C(c1ccc(N2C(=O)CCS2(=O)=O)cc1Cl)N1CCN(c2ccccn2)CC1
994 | Cc1sc2ccn(CC(C)C)c(=O)c2c1C(=O)NCc1ccccc1F
739 | O=C(c1cn(-c2cc(N3CCSCC3)ncn2)cn1)N1CCN(c2ncccn2)CC1
782 | O=C(Nc1ccc(Br)cc1F)C1CCN(C(=O)c2cccn2-c2cccnc2)CC1
627 | COc1ccc(S(=O)(=O)Nc2ccc(-c3cn4ccc(C)nc4n3)cc2)cc1OC
657 | Cc1ccc(S(=O)(=O)NCCc2nnc3ccc(NCCCOC(C)C)nn23)cc1
938 | CCOc1ccc(Cc2nnc(SCC(=O)c3ccc(OC)cc3)o2)cc1
673 | O=C(Cn1cnc2nc(N3CCCC(C(=O)NC4CC4)C3)sc2c1=O)Nc1ccc(F)cc1F (stereo not drawn)
749 | COc1cccc(C(=O)N2CCC3(CC2)NC(=O)c2cccc(Cl)c2N3)c1
706 | O=C(Cn1c(=O)c2cccn2c2ccc(F)cc21)N1CCN(C(=O)c2ccco2)CC1
1050 | COc1ccc(-c2nc(-c3cn(-c4ccc(C)cc4)nn3)no2)cc1OC
778 | Cc1cccc(S(=O)(=O)N2CCN(c3nc4ccncc4n(CC(C)C)c3=O)CC2)c1
519 | O=C(c1ccncc1)N1CC(N(Cc2ccncc2)CC2CC2)C1
1000 | O=C(NCc1ccco1)C1CCN(c2nc3ccccc3nc2C(F)(F)F)CC1
1240 | O=C(Nc1ccc(Br)cc1)C1CCCN(c2ncc(-c3ccccc3)cn2)C1 (stereo not drawn)
851 | CC(=O)Nc1ccc(-c2nc3ccc(C)cc3s2)cc1
913 | O=C(NCc1ccccc1)c1c(O)c2cccnc2[nH]c1=O
